Source: US20110064662A1, “KIT FOR PRODUCING MOLECULAR PROBE FOR PET SCREENING FOR DRUG DISCOVERY” (RIKEN, priority 2007, published 2011)

How the values were obtained:
[1] = Proportion of brain SUV to blood SUV in rats, with and without brain blood perfusion; type: in vivo; conditions: for uptake by the parenchyma of the brain: concluded from pre- and post-perfusion data; for amount of tracer after the brain blood perfusion: physiological saline perfused via the heart before decapitation
Procedure: As in Example 18, P-glycoprotein inhibitor cyclosporin A (CsA) was administered into rats in an amount of 25 mg/kg body weight of a rat 30 minutes prior to the administration of tracers. Thirty minutes after the administration of tracers, the rats were decapitated to remove the brains and measure the radioactivity. The figures show the results obtained from control rats into which no CsA was administered and from those into which CsA was administered in an amount of 25 mg/kg, expressed as a proportion of the brain SUV to the blood SUV. The SUV value in the present experiment is the average of the results obtained from two rats and expressed using a standard deviation. 10-O-p-[^11C]methylbenzylginkgolide B ([^11C]-29) (^11C-labeled compound) produced in Example 16 and [^18F]-30 were used as the tracers. […] FIG. 11 is from the measurement of radioactivity in the brain removed after decapitation, and FIG. 12 is from the measurement of radioactivity performed after flushing the blood out of the brain by infusing/perfusing physiological saline into the heart of a rat before decapitation.

P-glycoprotein = test: Experiment for determining P-glycoprotein substrates (brain radioactivity in rats with or without cyclosporin A pre-administration); type: in vivo; conditions: for amount of tracer present in the brain upon pre-administration of CsA: CsA in different doses 30 min before tracer, brain removed 30 min after tracer
Procedure: P-glycoprotein inhibitor cyclosporin A (CsA) was administered into rats 30 minutes prior to the administration of tracers. Thirty minutes after the administration of tracers, the rats were decapitated to remove the brains and measure the radioactivity. […] An SUV value in the present experiment is the average of the results obtained from 4 rats and expressed using a standard deviation.

[2] = PET analysis of the brain of the monkey after intravenous injection of labeled compound; type: in vivo; conditions: for stability against metabolism: concluded from monkey brain PET images; for initial brain uptake for 10 minutes after administration / elimination from the brain: monkey; for initial brain uptake for 10 minutes after administration: i.v. about 900 MBq, PET of brain, compared with conventional labeled compound
Procedure: The N-(2,5-dimethoxybenzyl)-N-[5-fluoro(4-[^11-C]methylphenoxy)-phenyl]acetamide ([^11C]-9) (^11C-labeled compound) produced in Example 9 was diluted with a mixed solution of physiological saline (3.6 ml), propylene glycol (0.3 ml), ethanol (0.1 ml), and a Tween 80 surfactant (0.1 ml), a radioactivity of about 900 MBq was introduced into a monkey through an intravenous injection, and a PET analysis of the brain of the monkey was performed using an animal PET scanner SHR-7700 manufactured by Hamamatsu Photonics K.K. ([^11C]-20).
[^11C]DAA1106 represented by the formula below was administered into a monkey in the same manner as in Example 10 except that [^11C]DAA1106 was used in place of the N-(2,5-dimethoxybenzyl)-N-[5-fluoro(4-[^11C]methylphenoxy)phenyl]acetamide ([^11C]-9) (labeled compound) produced in Example 9. The time radioactivity curves thereof are shown also in FIG. 3. […] [^11C]DAA1106 was separately produced according to WO 99/06353.
The 1-(2-chloro-5-methylphenyl)-N-methyl-(1-methylpropyl)-3-isoquinolinecarboxamide ([^11C]-20) (^11C-labeled compound) produced in Example 11 was diluted with a mixed solution of physiological saline (3.6 ml), propylene glycol (0.3 ml), ethanol (0.1 ml), and a Tween 80 surfactant (0.1 ml), a radioactivity of about 900 MBq was introduced into a monkey through an intravenous injection, and a PET analysis of [^11C]-20 in the brain of the monkey was performed using an animal PET scanner SHR-7700 manufactured by Hamamatsu Photonics K.K. The results are shown in FIG. 2.
[^11C]PK11195 represented by the formula below was administered into a monkey in the same manner as in Example 12 except that [^11C]PK11195 was used in place of the 1-(2-chloro-5-methylphenyl)-N-methyl-(1-methylpropyl)-3-isoquinolinecarbox amide ([^11C]-20) (labeled compound) produced in Example 11. […] [^11C]PK11195 was separately produced according to R. Camsonne et al., Journal of Labeled Compounds and Radiopharmaceuticals, 1984, 11, pp. 985-991.
The 10-O-p-[^11C]methylbenzylginkgolide B ([^11C]-29) (^11C-labeled compound) produced in Example 16 was diluted with a mixed solution of physiological saline (1.8 ml), propylene glycol (0.15 ml), ethanol (0.05 ml), a Tween 80 surfactant (0.05 ml), and intralipos (2.05 ml), a radioactivity of about 900 MBq was introduced into a monkey through an intravenous injection, and a PET analysis of [^11C]-29 in the brain of the monkey was performed using an animal PET scanner SHR-7700 manufactured by Hamamatsu Photonics K.K. The results are shown in FIG. 8.
[^18F]-30 represented by the formula below was administered into a monkey in the same manner as in Example 17 except that [^18F]-30 was used in place of the 10-O-p-[^11C]-methylbenzylginkgolide B ([^11C]-29) (^11C-labeled compound) produced in Example 16. […] [^18F]-30 was separately produced according to Makiko Suehiro, et al., J. Labelled Compd. Radiopharm., 47, pp. 485-491, 2004.

PAF receptor = PAF receptor (Homo sapiens, UniProt P25105); conditions: more strongly than natural ginkgolide B; cited from earlier work
PAF receptor, sequence (P25105 whole entry): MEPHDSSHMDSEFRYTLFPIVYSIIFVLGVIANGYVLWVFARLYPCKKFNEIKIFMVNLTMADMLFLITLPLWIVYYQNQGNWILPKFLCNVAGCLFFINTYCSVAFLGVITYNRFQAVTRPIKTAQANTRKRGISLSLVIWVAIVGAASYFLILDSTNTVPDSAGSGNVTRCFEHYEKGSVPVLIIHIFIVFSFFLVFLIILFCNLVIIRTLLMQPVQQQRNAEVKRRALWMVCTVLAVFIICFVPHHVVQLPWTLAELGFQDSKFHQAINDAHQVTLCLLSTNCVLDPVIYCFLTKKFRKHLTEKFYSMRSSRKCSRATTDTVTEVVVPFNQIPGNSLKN

[3] = time radioactivity curves after i.v. administration

| Molecule | stability against metabolism [2] | initial brain uptake for 10 minutes after administration [2] | elimination from the brain [2, 3] | brain uptake ([2]; monkey brain PET) | other results |
| --- | --- | --- | --- | --- | --- |
| 10-O-p-[^11C]methylbenzylginkgolide B [[^11C]-29] | stable against metabolism | increased initial brain uptake | promptly eliminated from the brain with time |  | uptake by the parenchyma of the brain [1]: taken up by the parenchyma of the brain; amount of tracer after the brain blood perfusion ([1]; control and CsA 25 mg/kg): did not change; amount of tracer present in the brain upon pre-administration of CsA (P-glycoprotein): changed in a volume-dependent manner; SUV values relative to those of [^11C]verapamil (P-glycoprotein; brain SUV, [^11C]verapamil as standard reference): about 30% |
| COc1ccc(OC)c(CN(C(C)=O)c2cc(F)ccc2Oc2ccc([11CH3])cc2)c1 [[^11C]-9, N-(2,5-dimethoxybenzyl)-N-[5-fluoro-(4[^11C]methylphenoxy)phenyl]acetamide] | stable against metabolism | greater initial brain uptake |  | greater than that of the conventional labeled compound |  |
| COc1ccc(O[11CH3])c(CN(C(C)=O)c2cc(F)ccc2Oc2ccccc2)c1 [[^11C]DAA1106, reference compound] |  |  |  |  | elimination from the brain ([2]; in vivo, iv): barely eliminated from the brain |
| CCC(C)N([11CH3])C(=O)c1cc2ccccc2c(-c2ccccc2Cl)n1 (centres unmarked) [[^11C]PK11195, reference compound] |  |  | barely eliminated from the brain |  |  |
| C[C@@H]1C(=O)O[C@H]2[C@H](O)C34C5OC(=O)[C@@]3(OC3OC(=O)C(O)C34[C@H](C(C)(C)C)[C@@H]5[18F])[C@@]12O (some centres unmarked) [[^18F]-30, reference compound] |  |  |  | barely taken up by the brain | proportion of the brain SUV to the blood SUV ([1]; 30 min after tracer, control and CsA 25 mg/kg): ≤ 0.04; uptake by the parenchyma of the brain [1]: not taken up by the parenchyma of the brain; amount of tracer after the brain blood perfusion ([1]; control and CsA 25 mg/kg): washed away by the brain blood perfusion; amount of tracer present in the brain upon pre-administration of CsA (P-glycoprotein): did not change; blood-brain barrier penetration ([2]; monkey brain PET): little blood-brain barrier penetration |
| Cc1ccc(COC2C(=O)OC3O[C@@]45C(=O)OC6C[C@@H](C(C)(C)C)C32C64[C@@H](O)[C@@H]2OC(=O)[C@@H](C)[C@@]25O)cc1 (some centres unmarked) [compound 29, 10-O-p-methylbenzylginkgolide B] |  |  |  |  | binding with a PAF receptor relative to natural ginkgolide B (PAF receptor): 10 times |
| CCC(C)N(C)C(=O)c1cc2ccccc2c(-c2cc([11CH3])ccc2Cl)n1 (centres unmarked) [[^11C]-20, 1-(2-chloro-5-[^11C]methylphenyl)-N-methyl-(1-methylpropyl)-3-isoquinolinecarboxamide] | stable against metabolism | greater initial brain uptake | promptly eliminated from the brain with time | greater than that of the conventional labeled compound |  |
